The subject of experiment [1] is B16. The experiment is described as follows: WST-1 test (mitochondrial activity). Conditions: CPP mimicking peptides, conc 10 µM, untreated = 1. The experiment is classed as cell-based, mouse. The method, then:
Methods. Human melanoma cell lines SK-MEL-28 and WM 2664 and mouse melanoma cell line B16 were obtained from the American Tissue Culture Collection (ATCC). Cells were cultured according to recommendations of ATCC (DMEM, 10% FCS, penicillin+streptomycin) and used in experiments after two passages in the laboratory. Cells were grown in 24 well plates, each treatment in triplicates. Cells were plated 16 hours prior treatments started. Peptides were added to the media, and media was changed every day during 7 day experiment. […]

The subject of experiment [2] is Dct/Trp2 promoter. The experiment is described as follows: Transient CAT assay, Dct/Trp2 proximal promoter-CAT construct in WM 266-4. The experiment is classed as cell-based, human. Conditions: CPP concentration 10 μM. The method, then: (§1) SOX10 and MITF interact with the proximal promoter of Dct/Trp2 gene and induces its activity (Ludwig A. et al., FEBS Lett. 556 (1-3):236-244 (2004)). Thus, a Dct/Trp2 proximal promoter reporter construct was used to analyze effect of mimicking peptides on promoter activity using transient CAT assay.
(§2) Methods. Human melanoma cell lines SK-MEL-28 and WM 266-4 were obtained from the American Tissue Culture Collection (ATCC) and were cultured according to recommendations of ATCC (DMEM, 10% FCS, penicillin+streptomycin). Dct/Trp2 proximal promoter-CAT construct (Ludwig et al., supra) was used in all experiments.
(§3) Cells were transfected by using FuGene reagent (Roche Molecular Biochemicals) according to manufacturer's instructions. Freeze-thaw lysates of cells collected 48 h after the transfection were assayed for CAT activity as described (Pothier, F. et al., DNA Cell Biol. 11(1):83-90 (1992)). At least two different DNA preparations were tested for each plasmid. To normalize the transfection efficiencies, cells were cotransfected with pON260 expressing β-galactosidase (Spaete, R. R. and Mocarski, E. S., J. Virol. 54(3):817-24 (1985); Spaete, R. R. and Mocarski, E. S., J. Virol. 56(1):13543 (1985)). All the CAT activities were normalized to total protein and β-galatosidase activity.
(§4) Following transfection, cells were grown in 6 well plates, each treatment in triplicates. Peptides were added to the media and media was changed every day during the 7 day experiment. CPP concentration was 10 μM.

Experiment [3] deals with SK-MEL-28. The experiment is described as follows: Cell counting after 7 day peptide treatment. It counts as cell-based, human. Conditions: conc 10 µM, start count 10. On the procedure: (§5) The ability to block interaction of MITF, SOX10 and STAT3 with active transcriptional complex and inhibit proliferation and stimulate apoptosis of melanoma cells were tested on human melanoma cell lines SK-MEL-28 and WM 266-4, and mouse melanoma cell line B16. Methods. Human melanoma cell lines SK-MEL-28 and WM 2664 and mouse melanoma cell line B16 were obtained from the American Tissue Culture Collection (ATCC). Cells were cultured according to recommendations of ATCC (DMEM, 10% FCS, penicillin+streptomycin) and used in experiments after two passages in the laboratory. Cells were grown in 24 well plates, each treatment in triplicates. Cells were plated 16 hours prior treatments started. Peptides were added to the media, and media was changed every day during 7 day experiment. CPP concentration was 10 μM For cell counting, cells were trypsinized (0.25% Trypsin, 2 mM EDTA) in Ca^+2, Mg^+2 free PBS. Cells were precipitated and resuspended in 100 μl of PBS, and 5 μl were removed for counting Methods. Human melanoma cell lines SK-MEL-28 and WM 266-4 were obtained from the American Tissue Culture Collection (ATCC) and were cultured according to recommendations of ATCC (DMEM, 10% FCS, penicillin+streptomycin). Human keratinocytes were obtained from Clonetics and cultured according to manufacturers protocol. Cells were used in experiments after two passages in the laboratory. Cells were grown in 24 well plates, each treatment in triplicates. Cells were plated 16 hours prior treatments started. Peptides were added to the media, and media was changed every day during 7 day experiment. CPP concentration was 10 μM. For cell counting, cells were trypsinized (0.25% Trypsin, 2 mM EDTA) in Ca, Mg free PBS. Cells were precipitated and resuspended in 100 μl of PBS, and 5 μl were removed for counting.

Experiment [4] relates to B16. Description: Cell counting after 7 day peptide treatment. The experiment is classed as cell-based, mouse. The settings on record: CPP mimicking peptides, conc 10 µM, start count 10. On the procedure: The ability to block interaction of MITF, SOX10 and STAT3 with active transcriptional complex and inhibit proliferation and stimulate apoptosis of melanoma cells were tested on human melanoma cell lines SK-MEL-28 and WM 266-4, and mouse melanoma cell line B16. Methods. Human melanoma cell lines SK-MEL-28 and WM 2664 and mouse melanoma cell line B16 were obtained from the American Tissue Culture Collection (ATCC). Cells were cultured according to recommendations of ATCC (DMEM, 10% FCS, penicillin+streptomycin) and used in experiments after two passages in the laboratory. Cells were grown in 24 well plates, each treatment in triplicates. Cells were plated 16 hours prior treatments started. Peptides were added to the media, and media was changed every day during 7 day experiment. […] Cells were precipitated and resuspended in 100 μl of PBS, and 5 μl were removed for counting

The subject of experiment [5] is Dct/Trp2 promoter. The experiment is described as follows: Transient CAT assay, Dct/Trp2 proximal promoter-CAT construct in SK-MEL-28. The experiment is classed as cell-based, human. The settings on record: CPP concentration 10 μM. On the procedure:
as §1, §2, §3, §4

For experiment [6], the system named is WM 266-4. Description: WST-1 test (mitochondrial activity). The experiment is classed as cell-based, human. Conditions: conc 10 µM, untreated = 1. On the procedure: Methods. Human melanoma cell lines SK-MEL-28 and WM 2664 and mouse melanoma cell line B16 were obtained from the American Tissue Culture Collection (ATCC). Cells were cultured according to recommendations of ATCC (DMEM, 10% FCS, penicillin+streptomycin) and used in experiments after two passages in the laboratory. Cells were grown in 24 well plates, each treatment in triplicates. Cells were plated 16 hours prior treatments started. Peptides were added to the media, and media was changed every day during 7 day experiment. […] Methods. Human melanoma cell lines SK-MEL-28 and WM 266-4 were obtained from the American Tissue Culture Collection (ATCC) and were cultured according to recommendations of ATCC (DMEM, 10% FCS, penicillin+streptomycin). Human keratinocytes were obtained from Clonetics and cultured according to manufacturers protocol. Cells were used in experiments after two passages in the laboratory. Cells were grown in 24 well plates, each treatment in triplicates. Cells were plated 16 hours prior treatments started. Peptides were added to the media, and media was changed every day during 7 day experiment. […] WST-1 test was performed to measure mitochondrial activity, which can also be used as a measure of cell number.
(Tetrazolium dyes change colour on reduction, which living cells bring about.)

Experiment [7] deals with WM 266-4. The experiment is described as follows: Cell counting after 7 day peptide treatment. The experiment is classed as cell-based, human. Conditions: CPP mimicking peptides, conc 10 µM, start count 10. On the procedure: as §5, with “CPP concentration was 10 μM For cell counting, cells were trypsinized (0.25% Trypsin, 2 mM EDTA) in Ca^+2, Mg^+2 free PBS.” left out, “CPP concentration was 10 μM.” left out

The subject of experiment [8] is SK-MEL-28. Description: WST-1 test (mitochondrial activity). The experiment is classed as cell-based, human. The settings on record: conc 10 µM, untreated = 1.
Experiment [9] has as its system Human keratinocytes. Description: WST-1 test (mitochondrial activity). Conditions: keratinocyte; modified peptides; conc 10 µM; untreated = 1. It counts as cell-based. The method, then: Methods. Human melanoma cell lines SK-MEL-28 and WM 266-4 were obtained from the American Tissue Culture Collection (ATCC) and were cultured according to recommendations of ATCC (DMEM, 10% FCS, penicillin+streptomycin). Human keratinocytes were obtained from Clonetics and cultured according to manufacturers protocol. Cells were used in experiments after two passages in the laboratory. Cells were grown in 24 well plates, each treatment in triplicates. Cells were plated 16 hours prior treatments started. Peptides were added to the media, and media was changed every day during 7 day experiment. […] WST-1 test was performed to measure mitochondrial activity, which can also be used as a measure of cell number.

Experiment [10] relates to WM 266-4. The experiment is described as follows: Apoptosis, Annexin V-Cy3 Apoptosis Kit. The experiment is classed as cell-based, human. Conditions: modified peptides, conc 10 µM. The method, then:
Methods. Human melanoma cell lines SK-MEL-28 and WM 2664 and mouse melanoma cell line B16 were obtained from the American Tissue Culture Collection (ATCC). Cells were cultured according to recommendations of ATCC (DMEM, 10% FCS, penicillin+streptomycin) and used in experiments after two passages in the laboratory. Cells were grown in 24 well plates, each treatment in triplicates. Cells were plated 16 hours prior treatments started. Peptides were added to the media, and media was changed every day during 7 day experiment. […] Methods. Human melanoma cell lines SK-MEL-28 and WM 266-4 were obtained from the American Tissue Culture Collection (ATCC) and were cultured according to recommendations of ATCC (DMEM, 10% FCS, penicillin+streptomycin). Human keratinocytes were obtained from Clonetics and cultured according to manufacturers protocol. Cells were used in experiments after two passages in the laboratory. Cells were grown in 24 well plates, each treatment in triplicates. Cells were plated 16 hours prior treatments started. Peptides were added to the media, and media was changed every day during 7 day experiment. […] Apoptosis was analyzed using Biovision Annexin V-Cy3 Apoptosis Kit according to manufacturers protocols.

In experiment [11] the test system is Human keratinocytes. The experiment is described as follows: Cell counting after 7 day peptide treatment. The experiment is classed as cell-based. Conditions: keratinocyte, modified peptides, conc 10 µM, start count 10. The method, then: Methods. Human melanoma cell lines SK-MEL-28 and WM 266-4 were obtained from the American Tissue Culture Collection (ATCC) and were cultured according to recommendations of ATCC (DMEM, 10% FCS, penicillin+streptomycin). Human keratinocytes were obtained from Clonetics and cultured according to manufacturers protocol. Cells were used in experiments after two passages in the laboratory. Cells were grown in 24 well plates, each treatment in triplicates. Cells were plated 16 hours prior treatments started. Peptides were added to the media, and media was changed every day during 7 day experiment. CPP concentration was 10 μM. For cell counting, cells were trypsinized (0.25% Trypsin, 2 mM EDTA) in Ca, Mg free PBS. Cells were precipitated and resuspended in 100 μl of PBS, and 5 μl were removed for counting.

Experiment [12] concerns B16 melanoma. Description: Mouse tumor xenograft model, peptide membrane patch on skin melanoma. The experiment is classed as in vivo. Conditions: patch immersed in 100 μM peptide solution, start = 100. On the procedure: The effect of modified mimicking peptides was analyzed by inducing melanomas in mouse skin by grafting suspension of melanoma cells. […] Tumor diameter was measured 1, 2, 3, 5, 7 days after treatmet started.
Methods. Mouse melanoma cell line B16 was cultured as described above, and approximately 5×10^6 cells were injected subcutaneously into the left and right limbs of three C57BL/6JOIaHsd mice.
Administration. Cellulose membrane was immersed in a solution of peptides (100 μM). Size of tumor was measured 1, 2, 3, 5 and 7 days following patch treatment. At the same time new patch was applied. All experiments were done in triplicates (3 animals per group).

For experiment [13], the system named is Human keratinocytes. The experiment is described as follows: Apoptosis, Annexin V-Cy3 Apoptosis Kit. The experiment is classed as cell-based. The settings on record: keratinocyte, modified peptides, conc 10 µM.

With “RPKKRKVRRRQLMLEPYALDMSRIRVLSESLGLATQSG [Scr-int1, reference compound]”, the “WST-1 7 d” value in [1] is on record as 1.1; in experiment [6] (CPP mimicking peptides), 1; in experiment [8] (CPP mimicking peptides), 1. Besides, the “Dct/Trp2 promoter activity (CAT assay)” value in experiment [2] and in [5] was “do not have significant effect” throughout. In addition, the “Cell Count 7 d” value in experiment [3] (CPP mimicking peptides) stood at 53; in [4] it was 83; in experiment [7], 41.
Take “TTGGSSPQGLEAKRPKKRKVRRRKMQQLEQMLTALDQMRRSIVSELAGLLS [STAT3-int1M]”: the “WST-1 7 d” value in experiment [9] amounted to 1; in experiment [6] (modified peptides), 0.91; in experiment [8] (modified peptides), 0.84. In addition, the “Apoptosis 7 d/%” value in experiment [10] is on record as 13%; in experiment [13] it was 2%. Besides, the “Cell Count 7 d” value in [3] (modified (inhibitor/MMP2, MMP9 site) peptides) is reported as 42; in [11], 41. Also, the “tumor size change (%) 1 d” value in experiment [12] (1 d, B16 s.c. in C57BL/6 mice) is given as 109%. The “tumor size change (%) 2 d” value in [12] (2 d) is 124%. Further, the “tumor size change (%) 3 d” value in experiment [12] (3 d) was determined as 154%. Besides, the “tumor size change (%) 5 d” value in experiment [12] (5 d) is reported as 181%. The “tumor size change (%) 7 d” value in experiment [12] (7 d) came to 217%.

The values are drawn from patent publication US20060014712A1, “Controlled delivery of therapeutic compounds” (CeMines, Inc., priority 2004, published 2006).
